Experiments:
myeloperoxidase [1] = target: T1, myeloperoxidase (Homo sapiens, UniProt P05164); assay: MPO Peroxidation Assay (Amplex Red Assay); type: biochemical; conditions: potency range class, read-out: Amplex Red Assay IC50 value
T1 sequence (P05164 49-745): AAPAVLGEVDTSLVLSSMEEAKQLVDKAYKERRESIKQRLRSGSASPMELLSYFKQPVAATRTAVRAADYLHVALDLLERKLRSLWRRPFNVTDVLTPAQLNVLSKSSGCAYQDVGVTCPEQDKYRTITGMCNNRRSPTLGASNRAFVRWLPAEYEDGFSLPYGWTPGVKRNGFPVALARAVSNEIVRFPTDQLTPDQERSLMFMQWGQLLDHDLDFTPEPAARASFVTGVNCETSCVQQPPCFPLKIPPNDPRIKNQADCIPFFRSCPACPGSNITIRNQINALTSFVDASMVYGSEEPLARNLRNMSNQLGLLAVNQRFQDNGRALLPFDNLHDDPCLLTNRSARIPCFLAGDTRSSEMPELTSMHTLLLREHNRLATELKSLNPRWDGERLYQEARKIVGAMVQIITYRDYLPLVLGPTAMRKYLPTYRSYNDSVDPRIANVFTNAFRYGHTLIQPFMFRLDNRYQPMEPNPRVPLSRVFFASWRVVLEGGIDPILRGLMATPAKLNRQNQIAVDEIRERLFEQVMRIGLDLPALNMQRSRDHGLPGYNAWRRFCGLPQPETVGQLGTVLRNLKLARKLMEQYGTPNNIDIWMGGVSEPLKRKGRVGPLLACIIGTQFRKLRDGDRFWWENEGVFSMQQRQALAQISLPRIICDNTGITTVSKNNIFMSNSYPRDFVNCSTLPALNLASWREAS

myeloperoxidase [2] = target: T1, myeloperoxidase; assay: MPO Chlorination Assay (APF Assay); type: biochemical; conditions: potency range class, read-out: APF Assay IC50 value

| Compound | IC50 (myeloperoxidase [1]) [nM] | IC50 (myeloperoxidase [2]) [nM] |
| --- | --- | --- |
| Nc1cc(C(CCNCc2cccc3ccccc23)c2ccccc2)c2nn[nH]c2n1 (centres unmarked) [Example 17, 7-(3-((naphthalen-1-ylmethyl)amino)-1-phenylpropyl)-3H-[1,2,3]triazolo[4,5-b]pyridin-5-amine] | 101 to 999 | 1 to 100 |
| CC(C)(C)CNCCC(c1ccccc1)c1cc(N)nc2[nH]nnc12 (centres unmarked) [Example 20, 7-{3-[(2,2-dimethylpropyl)amino]-1-phenylpropyl}-3H-[1,2,3]triazolo[4,5-b]pyridin-5-amine] | 101 to 999 | 1000 to 10000 |
| Nc1cc(C(CCNC23CC4CC(CC(C4)C2)C3)c2ccccc2)c2nn[nH]c2n1 (centres unmarked) [Example 21, 7-{3-[(adamantan-1-yl)amino]-1-phenylpropyl}-3H-[1,2,3]triazolo[4,5-b]pyridin-5-amine] | 101 to 999 | 101 to 999 |
| Nc1cc(C(CCNCC23CC4CC(CC(C4)C2)C3)c2ccccc2)c2nn[nH]c2n1 (centres unmarked) [Example 22, 7-(3-{[(adamantan-1-yl)methyl]amino}-1-phenylpropyl)-3H-[1,2,3]triazolo[4,5-b] pyridin-5-amine] | 101 to 999 | 101 to 999 |
| Nc1cc(C(CCNCC2CCCCC2)c2ccccc2)c2nn[nH]c2n1 (centres unmarked) [Example 23, 7-{3-[(cyclohexylmethyl)amino]-1-phenylpropyl}-3H-[1,2,3]triazolo[4,5-b] pyridin-5-amine] | 101 to 999 | 101 to 999 |
| Nc1cc(C(CCNC(c2ccccc2)C(F)(F)F)c2ccccc2)c2nn[nH]c2n1 (centres unmarked) [Example 24, 7-{1-phenyl-3-[(2,2,2-trifluoro-1-phenylethyl)amino]propyl}-3H-[1,2,3]triazolo[4,5-b]pyridin-5-amine] | 101 to 999 | 1000 to 10000 |
| Nc1cc(C(CCNC2CCCc3ccccc32)c2ccccc2)c2nn[nH]c2n1 (centres unmarked) [Example 25, 7-{1-phenyl-3-[(1,2,3,4-tetrahydronaphthalen-1-yl)amino]propyl}-3H-[1,2,3] triazolo[4,5-b] pyridin-5-amine] | 101 to 999 | 1 to 100 |
| Cc1cccc(C)c1CNCCC(c1ccccc1)c1cc(N)nc2[nH]nnc12 (centres unmarked) [Example 27, 7-(3-{[(2,6-dimethylphenyl)methyl]amino}-1-phenylpropyl)-3H-[1,2,3]triazolo[4,5-b] pyridin-5-amine] | 101 to 999 | 101 to 999 |
| Nc1cc(C(CCNC2CCCc3ccccc32)c2ccccc2)c2nn[nH]c2n1 (centres unmarked) [Example 28, 7-{1-phenyl-3-[(1,2,3,4-tetrahydronaphthalen-1-yl)amino]propyl}-3H-[1,2,3]triazolo [4,5-b]pyridin-5-amine] | 1 to 100 | 1 to 100 |
| Nc1cc(C(CCNC2CCCc3ccccc32)c2ccccc2)c2nn[nH]c2n1 (centres unmarked) [Example 29, 7-{1-phenyl-3-[(1,2,3,4-tetrahydronaphthalen-1-yl)amino]propyl}-3H-[1,2,3]triazolo [4,5-b]pyridin-5-amine] | 1 to 100 | 1 to 100 |
| Nc1cc(C(Cc2ccccn2)c2ccccc2)c2nn[nH]c2n1 (centres unmarked) [Example 38, 7-(1-phenyl-2-(pyridin-2-yl)ethyl)-3H-[1,2,3]triazolo[4,5-b]pyridin-5-amine] | 101 to 999 | 101 to 999 |
| Nc1cc(C(CCNC(=O)c2ccccc2)c2ccccc2)c2nn[nH]c2n1 (centres unmarked) [Example 39, N-(3-(5-amino-3H-[1,2,3]triazolo[4,5-b]pyridin-7-yl)-3-phenylpropyl)benzamide] | 101 to 999 | 1000 to 10000 |
| Nc1cc(C(CCNC2Cc3ccccc3C2)c2ccccc2)c2nn[nH]c2n1 (centres unmarked) [Example 41, 7-{3-[(2,3-dihydro-1H-inden-2-yl)amino]-1-phenylpropyl}-3H-[1,2,3]triazolo[4,5-b]pyridin-5-amine] | 101 to 999 | 101 to 999 |
| Nc1cc(C(CCNC(Cc2ccccc2)c2ccccc2)c2ccccc2)c2nn[nH]c2n1 (centres unmarked) [Example 45, 7-{3-[(1,2-diphenylethyl)amino]-1-phenylpropyl}-3H-[1,2,3]triazolo[4,5-b] pyridin-5-amine] | 101 to 999 | 101 to 999 |
| Nc1cc(C(CCNC2c3ccccc3CC2c2ccccc2)c2ccccc2)c2nn[nH]c2n1 (centres unmarked) [Example 46, 7-{1-phenyl-3-[(2-phenyl-2,3-dihydro-1H-inden-1-yl)amino]propyl}-3H-[1,2,3]triazolo [4,5-b]pyridin-5-amine] | 101 to 999 | 101 to 999 |

The remaining lines, values ahead:

| IC50 (myeloperoxidase [1]) [nM] | IC50 (myeloperoxidase [2]) [nM] | Compound |
| --- | --- | --- |
| 1000 to 10000 | 101 to 999 | Nc1cc(C(CCNC(Cc2ccccc2)c2ccccc2)c2ccccc2)c2nn[nH]c2n1 (centres unmarked) [Example 47, 7-{3-[(1,2-diphenylethyl)amino]-1-phenylpropyl}-3H-[1,2,3]triazolo[4,5-b]pyridin-5-amine] |
| 101 to 999 | 1 to 100 | Nc1cc(C(CCNC(Cc2ccccc2)c2ccccc2)c2ccccc2)c2nn[nH]c2n1 (centres unmarked) [Example 48, 7-{3-[(1,2-diphenylethyl)amino]-1-phenylpropyl}-3H-[1,2,3]triazolo[4,5-b]pyridin-5-amine] |
| 101 to 999 | 101 to 999 | Nc1cc(C(CCNCc2cccc(C(F)(F)F)c2)c2ccccc2)c2nn[nH]c2n1 (centres unmarked) [Example 53, 7-[1-phenyl-3-({[3-(trifluoromethyl)phenyl]methyl}amino)propyl]-3H-[1,2,3]triazolo[4,5-b]pyridin-5-amine] |
| 101 to 999 | 101 to 999 | Nc1cc(C(CCNCc2ccc(C(F)(F)F)cc2)c2ccccc2)c2nn[nH]c2n1 (centres unmarked) [Example 54, 7-[1-phenyl-3-({[4-(trifluoromethyl)phenyl]methyl}amino)propyl]-3H-[1,2,3]triazolo[4,5-b]pyridin-5-amine] |
| 1000 to 10000 | 101 to 999 | Nc1cc(C(CCNC2c3ccccc3CC2c2ccccc2)c2ccccc2)c2nn[nH]c2n1 (centres unmarked) [Example 55, 7-{1-phenyl-3-[(2-phenyl-2,3-dihydro-1H-inden-1-yl)amino]propyl}-3H-[1,2,3] triazolo[4,5-b] pyridin-5-amine] |
| 101 to 999 | 1 to 100 | Nc1cc(C(CCNC2c3ccccc3CC2c2ccccc2)c2ccccc2)c2nn[nH]c2n1 (centres unmarked) [Example 56, 7-{1-phenyl-3-[(2-phenyl-2,3-dihydro-1H-inden-1-yl)amino]propyl}-3H-[1,2,3]triazolo[4,5-b] pyridin-5-amine] |
| 101 to 999 | 1 to 100 | Nc1cc(C(CCN[C@H]2CCc3ccc(F)cc32)c2ccccc2)c2nn[nH]c2n1 (stereo partly drawn) [Example 57, 7-(3-{[(1S)-6-fluoro-2,3-dihydro-1H-inden-1-yl]amino}-1-phenylpropyl)-3H-[1,2,3]triazolo[4,5-b]pyridin-5-amine] |
| 101 to 999 | 1 to 100 | Nc1cc(C(CCN[C@H]2CCc3cc(F)ccc32)c2ccccc2)c2nn[nH]c2n1 (stereo partly drawn) [Example 58, 7-(3-{[(1S)-5-fluoro-2,3-dihydro-1H-inden-1-yl]amino}-1-phenylpropyl)-3H-[1,2,3]triazolo[4,5-b]pyridin-5-amine] |
| 101 to 999 | 101 to 999 | COC(=O)c1cccc(CNCCC(c2ccccc2)c2cc(N)nc3[nH]nnc23)c1 (centres unmarked) [Example 59, methyl 3-{[(3-{5-amino-3H-[1,2,3]triazolo [4,5-b]pyridin-7-yl}-3-phenylpropyl)amino]methyl} benzoate] |
| 101 to 999 | 1 to 100 | Nc1cc(C(CCN[C@@H]2CCc3ccc(F)cc32)c2ccccc2)c2nn[nH]c2n1 (stereo partly drawn) [Example 60, 7-(3-{[(1R)-6-fluoro-2,3-dihydro-1H-inden-1-yl]amino}-1-phenylpropyl)-3H-[1,2,3]triazolo[4,5-b]pyridin-5-amine] |

From patent publication US11008317B2, “Triazolopyridine inhibitors of myeloperoxidase and/or EPX” (priority 2016, dated 2021)
